Test systems include PC-3 prostate; MALME-3M melanoma; HL-60(TB) leukemia; MOLT-4 leukemia; LOX IMVI melanoma; 786-0 renal; SK-MEL-28 melanoma; MCF7 breast.
Assay in all cases: NCI tumour cell line growth inhibition, 48 h

Values joined by “and” are separate entries in the source; they are usually repeats but may differ in a detail not shown here. Equal entries are not always repeated.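 Assay format: 96-well plates, 48-hour exposure. Here, GI50 denotes the concentration required for 50% inhibition of growth. TGI marks complete inhibition of growth.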 Bounds are passed on as bounds.

Regarding `COc1cc(C2C(C#N)=C(N)Oc3cc(O)ccc32)cc(OC)c1OC` (stereo unspecified), the GI50 in the experiment with PC-3 prostate was 0.619 µM; with MALME-3M melanoma it was 0.644 µM; in the experiment on HL-60(TB) leukemia, 0.311 µM; in the experiment with MOLT-4 leukemia it was 0.584 µM; in the experiment on LOX IMVI melanoma, 0.546 µM; with 786-0 renal it was 0.668 µM. For the same compound, the GI50 is 0.86 µM with SK-MEL-28 melanoma and 0.334 µM in the experiment on MCF7 breast. The TGI in the experiment with PC-3 prostate, in the experiment on MALME-3M melanoma, in the experiment with HL-60(TB) leukemia, in the experiment on MOLT-4 leukemia, with LOX IMVI melanoma and with 786-0 renal was greater than 100 µM in each case. In addition, the TGI in the experiment on SK-MEL-28 melanoma and in the experiment with MCF7 breast was greater than 100 µM throughout.
In the case of `COc1cc(OC)cc(-c2cncn2-c2ccc(-c3nc4cc(OC)c(OC)c(OC)c4s3)cc2)c1`, the GI50 in the experiment on PC-3 prostate is 3.17 µM; with MALME-3M melanoma, 9.59 µM; in the experiment on HL-60(TB) leukemia, 2.43 µM; with MOLT-4 leukemia it was 4.1 µM; in the experiment on LOX IMVI melanoma, 6.93 µM; in the experiment with 786-0 renal it was 10.3 µM. Also, the GI50 in the experiment on SK-MEL-28 melanoma was 31.6 µM; with MCF7 breast, 4.02 µM. For the same compound, the TGI in the experiment with PC-3 prostate was greater than 100 µM; in the experiment with MALME-3M melanoma it was 75.1 µM; in the experiment on HL-60(TB) leukemia it was greater than 100 µM; in the experiment with MOLT-4 leukemia, greater than 100 µM; in the experiment with LOX IMVI melanoma, greater than 100 µM; in the experiment on 786-0 renal, greater than 100 µM. In addition, the TGI with SK-MEL-28 melanoma and with MCF7 breast was greater than 100 µM each time.
Consider `Nc1c(C(=O)Nc2ccccc2)sc2nc3c(cc12)CCCC3`, for which the GI50 in the experiment on PC-3 prostate was 0.703 µM; with MALME-3M melanoma it was 0.608 µM; in the experiment on HL-60(TB) leukemia, 0.299 µM; with MOLT-4 leukemia, 0.693 µM; with LOX IMVI melanoma, 0.908 µM; with 786-0 renal, 0.706 µM. Further, the GI50 was 14.7 µM with SK-MEL-28 melanoma and 0.355 µM in the experiment with MCF7 breast. Moreover, the TGI in the experiment on PC-3 prostate is greater than 71.2 µM; in the experiment on MALME-3M melanoma, 95.2 µM; in the experiment with HL-60(TB) leukemia, 20.8 µM; in the experiment on MOLT-4 leukemia, greater than 100 µM; with LOX IMVI melanoma, greater than 100 µM; with 786-0 renal it was 55 µM. The TGI in the experiment with SK-MEL-28 melanoma and in the experiment on MCF7 breast was greater than 100 µM each time.
On to `COc1ccc(CC2C3=C(CCCC3)CCN2C)cc1` (stereo unspecified), for which the TGI with PC-3 prostate, in the experiment on MALME-3M melanoma, with HL-60(TB) leukemia, with MOLT-4 leukemia, in the experiment on LOX IMVI melanoma and with 786-0 renal was greater than 100 µM in each case. The TGI with SK-MEL-28 melanoma and with MCF7 breast was greater than 100 µM throughout.
As for `CNC1C(OC2C(OC3C(O)C(O)C(O)C(O)C3O)OC(C)C2(O)CO)OC(CO)C(O)C1O` (stereo unspecified) (tested in a mixture with another compound), the TGI in the experiment on PC-3 prostate, in the experiment with MALME-3M melanoma, in the experiment with HL-60(TB) leukemia, in the experiment with MOLT-4 leukemia, in the experiment with LOX IMVI melanoma and in the experiment with 786-0 renal was greater than 100 µM each time. The TGI in the experiment on SK-MEL-28 melanoma and in the experiment on MCF7 breast was greater than 100 µM throughout.
Consider `Cc1ccc(S(=O)(=O)n2cc(-c3nnnn3-c3ccc(Cl)cc3)c(=O)c3ccccc32)cc1`, for which the GI50 in the experiment on PC-3 prostate is 57.3 µM; in the experiment on MALME-3M melanoma it was greater than 100 µM; in the experiment on HL-60(TB) leukemia it was 12.9 µM; with MOLT-4 leukemia it was 21.2 µM; in the experiment on LOX IMVI melanoma, greater than 100 µM; in the experiment on 786-0 renal, greater than 100 µM. Also, the GI50 is greater than 100 µM with SK-MEL-28 melanoma and 80.6 µM in the experiment on MCF7 breast. In addition, the TGI with PC-3 prostate is greater than 100 µM; in the experiment on MALME-3M melanoma, greater than 100 µM; with HL-60(TB) leukemia it was 31 µM; with MOLT-4 leukemia, 57 µM; in the experiment on LOX IMVI melanoma, greater than 100 µM; with 786-0 renal, greater than 100 µM. The TGI in the experiment on SK-MEL-28 melanoma and with MCF7 breast was greater than 100 µM throughout.
As to `O=C(/C=C/c1cccnc1)c1ccccc1O`, the GI50 with PC-3 prostate was 21.9 µM; in the experiment on MALME-3M melanoma, 22.2 µM; with HL-60(TB) leukemia it was 18.1 µM; in the experiment with MOLT-4 leukemia, 23 µM; in the experiment on LOX IMVI melanoma, 14.4 µM; with 786-0 renal, 17.2 µM. Also, the results for the GI50 with SK-MEL-28 melanoma and in the experiment with MCF7 breast were 24.1 µM and 32.3 µM, respectively. Further, the TGI in the experiment on PC-3 prostate came to 66.8 µM; with MALME-3M melanoma it was 62.9 µM; in the experiment with HL-60(TB) leukemia, 43 µM; in the experiment on MOLT-4 leukemia, 73.5 µM; with LOX IMVI melanoma it was 30.8 µM; in the experiment with 786-0 renal it was 31.8 µM. The TGI in the experiment on SK-MEL-28 melanoma is 72.3 µM; in the experiment with MCF7 breast, greater than 100 µM.
For `CCc1ccc(Nc2cc(C)nc3nc(C)nn23)cc1`, the GI50 in the experiment with PC-3 prostate is 53.3 µM; in the experiment on MALME-3M melanoma, 69.5 µM; with HL-60(TB) leukemia, greater than 100 µM; with MOLT-4 leukemia, 33.3 µM; in the experiment on LOX IMVI melanoma it was 46 µM; in the experiment on 786-0 renal, greater than 100 µM. Besides, the GI50 in the experiment with SK-MEL-28 melanoma is 48.8 µM; in the experiment on MCF7 breast it was 36.7 µM. The TGI in the experiment on PC-3 prostate, in the experiment on MALME-3M melanoma, in the experiment with HL-60(TB) leukemia, with MOLT-4 leukemia, with LOX IMVI melanoma and in the experiment with 786-0 renal was greater than 100 µM each time. Moreover, the TGI in the experiment with SK-MEL-28 melanoma and in the experiment on MCF7 breast was greater than 100 µM each time.
For `O=[N+]([O-])c1ccc(-c2cn(-c3ccc(Cl)cc3)cn2)cc1`, the TGI with PC-3 prostate was greater than 100 µM; in the experiment with MALME-3M melanoma, greater than 100 µM; with HL-60(TB) leukemia it was greater than 100 µM; with MOLT-4 leukemia, greater than 100 µM; in the experiment with LOX IMVI melanoma, greater than 100 µM; with 786-0 renal it was 36.5 µM. For the same compound, the TGI in the experiment with SK-MEL-28 melanoma and in the experiment on MCF7 breast was greater than 100 µM in each case.
In the case of `NC[C@@](O)(c1ccc(Cl)cc1)c1ccc(-c2cn[nH]c2)cc1`, the GI50 in the experiment with PC-3 prostate is 3.89 µM and 2.19 µM; with MALME-3M melanoma, 1.57 µM; in the experiment on HL-60(TB) leukemia it was 1.7 µM; in the experiment on MOLT-4 leukemia it was 2.14 µM and 1.98 µM; in the experiment on LOX IMVI melanoma, 1.59 µM; with 786-0 renal, 0.341 µM and 0.473 µM. Besides, the values for the GI50 in the experiment with SK-MEL-28 melanoma and in the experiment on MCF7 breast were 3.97 µM and 1.1 µM, respectively. The TGI with PC-3 prostate is greater than 100 µM; in the experiment with MALME-3M melanoma, 3.08 µM; in the experiment on HL-60(TB) leukemia it was 4.13 µM; in the experiment on MOLT-4 leukemia, greater than 100 µM; with LOX IMVI melanoma, 3.04 µM; with 786-0 renal, 10.6 µM and 2.2 µM. For the same compound, the TGI is greater than 10 µM with SK-MEL-28 melanoma and 2.54 µM in the experiment with MCF7 breast.
